{"source": "patent US10138255B2", "about": "“Piperazine derivatives as HIV protease inhibitors” (Merck Sharp & Dohme Corp., priority 2014, dated 2018)", "note": "pEC50: −log10 of the molar value.", "data": [{"system": "HIV-1 (H9IIIB strain)", "experiment": "Cell-Based HIV Infection Assay Using a Reporter (MT4-GFP cells)", "conditions": "Human immunodeficiency virus 1, inflection point (IP) of viral growth inhibition; MT4-GFP cells infected with HIV-1 H9IIIB; 50% normal human serum; mean of at least two independent experiments; read-out: Cell Based IP (50% NHS)", "in_short": "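Inflection point from a 4-parameter curve of % viral growth inhibition, normalised to DMSO and triple-drug controls, using the 48 h/24 h ratio of GFP-positive cells (R0). MT4-GFP cells pre-infected 24 h with HIV-1 H9IIIB at low MOI; compounds tested in 50% normal human serum, 0.4% DMSO; mean of ≥2 experiments.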", "values": [{"smiles": "C[C@@H]1CC([C@H](c2ccc(F)cc2)[C@H](N)C(=O)Nc2ccc(F)c(F)c2CC[C@H]2CN[C@@H]3CCCS(=O)(=O)N2C3)C[C@H](C)O1", "note": "(stereo partly drawn) [Example 166, (βR)-β-[(2R,6S)-2,6-dimethyltetrahydro-2H-pyran-4-yl]-N-(2-{2-[(6R,9S)-2,2-dioxido-2-thia-1,7-diazabicyclo[4.3.1]dec-9-yl]ethyl}-3,4-difluorophenyl)-4-fluoro-L-phenylalaninamide]", "pEC50": 7.60}, {"smiles": "COC(=O)N[C@H](C(=O)Nc1cccc(F)c1CC[C@H]1CN[C@@H]2CCCS(=O)(=O)N1C2)[C@@]1(c2ccc(Cl)cc2)C[C@@H](C)O[C@@H](C)C1", "note": "[Example 167, methyl {(1S)-1-[(2R,4r,6S)-4-(4-chlorophenyl)-2,6-dimethyltetrahydro-2H-pyran-4-yl]-2-[(2-{2-[(6R,9S)-2,2-dioxido-2-thia-1,7-diazabicyclo[4.3.1]dec-9-yl]ethyl}-3-fluorophenyl)amino]-2-oxoethyl}carbamate]", "pEC50": 7.57}, {"smiles": "C[C@@H]1C[C@](c2ccc(Cl)cc2)([C@H](N)C(=O)Nc2cccc(F)c2CC[C@H]2CN[C@@H]3CCCS(=O)(=O)N2C3)C[C@H](C)O1", "note": "[Example 168, (2S)-2-amino-2-[(2R,4r,6S)-4-(4-chlorophenyl)-2,6-dimethyltetrahydro-2H-pyran-4-yl]-N-(2-{2-[(6R,9S)-2,2-dioxido-2-thia-1,7-diazabicyclo[4.3.1]dec-9-yl]ethyl}-3-fluorophenyl)ethanamide]", "pEC50": 6.77}, {"smiles": "COC(=O)N[C@H](C(=O)N[C@H]1CCCC[C@@H]1CC[C@H]1CN[C@@H]2CCCS(=O)(=O)N1C2)[C@@]1(c2ccc(Cl)cc2)C[C@@H](C)O[C@@H](C)C1", "note": "[Example 169, methyl [(1S)-1-[(2R,4r,6S)-4-(4-chlorophenyl)-2.6-dimethyltetrahydro-2H-pyran-4-yl]-2-{[(1S,2R)-2-{2-[(6R,9S)-2,2-dioxido-2-thia-1,7-diazabicyclo[4.3.1]dec-9-yl]ethyl}cyclohexyl]amino}-2-oxoethyl]carbamate]", "pEC50": 7.05}, {"smiles": "C[C@@H]1C[C@](c2ccc(Cl)cc2)([C@H](N)C(=O)N[C@H]2CCCC[C@@H]2CC[C@H]2CN[C@@H]3CCCS(=O)(=O)N2C3)C[C@H](C)O1", "note": "[Example 170, (2S)-2-amino-2-[(2R,4r,6S)-4-(4-chlorophenyl)-2,6-dimethyltetrahydro-2H-pyran-4-yl]-N-[(1S,2R)-2-{2-[(6R,9S)-2,2-dioxido-2-thia-1,7-diazabicyclo[4.3.1]dec-9-yl]ethyl}cyclohexyl]ethanamide]", "pEC50": 6.64}, {"smiles": "CO[C@H]1CC[C@](c2ccc(Cl)cc2)([C@H](N)C(=O)Nc2cccc(F)c2CC[C@H]2CN[C@@H]3CCCS(=O)(=O)N2C3)CC1", "note": "[Example 171, (2S)-2-amino-2-[trans-1-(4-chlorophenyl)-4-methoxycyclohexyl]-N-(2-{2-[(6R,9S)-2,2-dioxido-2-thia-1,7-diazabicyclo[4.3.1]dec-9-yl]ethyl}-3-fluorophenyl)ethanamide]", "pEC50": 7.47}, {"smiles": "COC(=O)N[C@H](C(=O)Nc1cccc(F)c1CCC1CNC2CCCS(=O)(=O)N1C2)[C@@H](c1ccc(Cl)cc1)C1CCOC(CC(F)(F)F)C1", "note": "(stereo partly drawn) [Example 172, methyl {(1S,2R)-2-(4-chlorophenyl)-1-({2-[2-(2,2-dioxido-2-thia-1,7-diazabicyclo[4.3.1]dec-9-yl)ethyl]-3-fluorophenyl}carbamoyl)-2-[2-(2,2,2-trifluoroethyl)tetrahydro-2H-pyran-4-yl]ethyl}carbamate]", "pEC50": 7.42}, {"smiles": "N[C@H](C(=O)Nc1cncc(F)c1CC[C@H]1CN[C@@H]2CCCS(=O)(=O)N1C2)[C@@H](c1ccc(Cl)cc1)C1CCOCC1", "note": "[Example 173, (βR)-4-chloro-N-(4-{2-[(6R,9S)-2,2-dioxido-2-thia-1,7-diazabicyclo[4.3.1]dec-9-yl]ethyl}-5-fluoropyridin-3-yl)-β-(tetrahydro-2H-pyran-4-yl)-L-phenylalaninamide]", "pEC50": 7.64}, {"smiles": "COC(=O)N[C@H](C(=O)Nc1cncc(F)c1CC[C@H]1CN[C@@H]2CCCS(=O)(=O)N1C2)[C@@H](c1ccc(Cl)cc1)C1CCOCC1", "note": "[Example 174, methyl [(1S,2R)-2-(4-chlorophenyl)-1-[(4-{2-[(6R,9S)-2,2-dioxido-2-thia-1,7-diazabicyclo[4.3.1]dec-9-yl]ethyl}-5-fluoropyridin-3-yl)carbamoyl]-2-(tetrahydro-2H-pyran-4-yl)ethyl]carbamate]", "pEC50": 7.05}, {"smiles": "COC(=O)N[C@H](C(=O)Nc1cccc(F)c1CC[C@H]1CN[C@@H]2CCCS(=O)(=O)N1C2)C1(c2ccc(Cl)cc2)CCN(S(C)(=O)=O)CC1", "note": "[Example 175, methyl {(1S)-1-[4-(4-chlorophenyl)-1-(methylsulfonyl)piperidin-4-yl]-2-[(2-{2-[(6R,9S)-2,2-dioxido-2-thia-1,7-diazabicyclo[4.3.1]dec-9-yl]ethyl}-3-fluorophenyl)amino]-2-oxoethyl}carbamate]", "pEC50": 6.92}, {"smiles": "CS(=O)(=O)N1CCC(c2ccc(Cl)cc2)([C@H](N)C(=O)Nc2cccc(F)c2CC[C@H]2CN[C@@H]3CCCS(=O)(=O)N2C3)CC1", "note": "[Example 176, (2S)-2-amino-2-[4-(4-chlorophenyl)-1-(methylsulfonyl)piperidin-4-yl]-N-(2-{2-[(6R,9S)-2,2-dioxido-2-thia-1,7-diazabicyclo[4.3.1]dec-9-yl]ethyl}-3-fluorophenyl)ethanamide]", "pEC50": 6.82}, {"smiles": "CCCN[C@H](C(=O)N[C@H]1CCC[C@@H]1CC[C@H]1CN[C@@H]2CCCS(=O)(=O)N1C2)[C@@H](c1ccc(Cl)cc1)C1CCOC(C)(C)C1", "note": "(stereo partly drawn) [Example 177, (βR)-4-chloro-β-(2,2-dimethyltetrahydro-2H-pyran-4-yl)-N-[(1S,2R)-2-{2-[(6R,9S)-2,2-dioxido-2-thia-1,7-diazabicyclo[4.3.1]dec-9-yl]ethyl}cyclopentyl]-Nα-propyl-L-phenylalaninamide]", "pEC50": 6.40}, {"smiles": "COC(=O)N[C@H](C(=O)Nc1cncc(F)c1CC[C@H]1CN[C@@H]2CCCS(=O)(=O)N1C2)[C@@H](c1ccc(F)cc1)C1CCOCC1", "note": "[Example 178, methyl {(1S)-2-[(4-{2-[(6R,9S)-2,2-dioxido-2-thia-1,7-diazabicyclo[4.3.1]dec-9-yl]ethyl}-5-fluoropyridin-3-yl)amino]-1-[(R)-(4-fluorophenyl)(tetrahydro-2H-pyran-4-yl)methyl]-2-oxoethyl}carbamate]", "pEC50": 6.80}, {"smiles": "CC1(C)CC([C@H](c2ccc(F)cc2)[C@H](N)C(=O)Nc2ccc(F)c(F)c2CC[C@H]2CN[C@@H]3CCCS(=O)(=O)N2C3)CCO1", "note": "(stereo partly drawn) [Example 179, (βR)-β-(2,2-dimethyltetrahydro-2H-pyran-4-yl)-N-(2-{2-[(6R,9S)-2,2-dioxido-2-thia-1,7-diazabicyclo[4.3.1]dec-9-yl]ethyl}-3,4-difluorophenyl)-4-fluoro-L-phenylalaninamide]", "pEC50": 7.51}, {"smiles": "CO[C@H]1CC[C@H]([C@H](c2ccc(F)cc2)[C@H](N)C(=O)Nc2ccc(F)c(F)c2CC[C@H]2CN[C@@H]3CCCS(=O)(=O)N2C3)CC1", "note": "[Example 180, (βR)-N-(2-{2-[(6R,9S)-2,2-dioxido-2-thia-1,7-diazabicyclo[4.3.1]dec-9-yl]ethyl}-3,4-difluorophenyl)-4-fluoro-β-[(1r,4R)-4-methoxycyclohexyl]-L-phenylalaninamide]", "pEC50": 7.96}, {"smiles": "CC1(C)CC([C@H](c2ccc(Cl)cc2)[C@H](NCC2CC2)C(=O)N[C@H]2CCC[C@@H]2CC[C@H]2CN[C@@H]3CCCS(=O)(=O)N2C3)CCO1", "note": "(stereo partly drawn) [Example 181, (βR)-4-chloro-Nα-(cyclopropylmethyl)-β-(2,2-dimethyltetrahydro-2H-pyran-4-yl)-N-[(1S,2R)-2-{2-[(6R,9S)-2,2-dioxido-2-thia-1,7-diazabicyclo[4.3.1]dec-9-yl]ethyl)cyclopentyl]-L-phenylalaninamide]", "pEC50": 6.19}, {"smiles": "COCCN[C@H](C(=O)N[C@H]1CCC[C@@H]1CC[C@H]1CN[C@@H]2CCCS(=O)(=O)N1C2)[C@@H](c1ccc(Cl)cc1)C1CCOC(C)(C)C1", "note": "(stereo partly drawn) [Example 182, (βR)-4-chloro-β-(2,2-dimethyltetrahydro-2H-pyran-4-yl)-N-[(1S,2R)-2-{2-[(6R,9S)-2,2-dioxido-2-thia-1,7-diazabicyclo[4.3.1]dec-9-yl]ethyl}cyclopentyl]-Nα-(2-methoxyethyl)-L-phenylalaninamide]", "pEC50": 7.15}, {"smiles": "CC[C@H](C)N[C@H](C(=O)N[C@H]1CCC[C@@H]1CC[C@H]1CN[C@@H]2CCCS(=O)(=O)N1C2)[C@@H](c1ccc(Cl)cc1)C1CCOC(C)(C)C1", "note": "(stereo partly drawn) [Example 183, (βR)-4-chloro-β-(2,2-dimethyltetrahydro-2H-pyran-4-yl)-N-[(1S,2R)-2-{2-[(6R,9S)-2,2-dioxido-2-thia-1,7-diazabicyclo[4.3.1]dec-9-yl]ethyl}cyclopentyl]-Nα-[(1S)-1-methylpropyl]-L-phenylalaninamide]", "pEC50": 5.89}, {"smiles": "CC1(C)CC([C@H](c2ccc(Cl)cc2)[C@H](NCCCC(F)(F)F)C(=O)N[C@H]2CCC[C@@H]2CC[C@H]2CN[C@@H]3CCCS(=O)(=O)N2C3)CCO1", "note": "(stereo partly drawn) [Example 184, (βR)-4-chloro-β-(2,2-dimethyltetrdhydro-2H-pyran-4-yl)-N-[(1S,2R)-2-{2-[(6R,9S)-2,2-dioxido-2-thia-1,7-diazabicyclo[4.3.1]dec-9-yl]ethyl}cyclopentyl]-Nα-(4,4,4-trifluorobutyl)-L-phenylalaninamide]", "pEC50": 6.48}, {"smiles": "N[C@H](C(=O)Nc1cccc(F)c1CC[C@H]1CN[C@@H]2CCCS(=O)(=O)N1C2)C1(c2ccc(Cl)cc2)CCNCC1", "note": "[Example 185, (2S)-2-amino-2-[4-(4-chlorophenyl)piperidin-4-yl]-N-(2-{2-[(6R,9S)-2,2-dioxido-2-thia-1,7-diazabicyclo[4.3.1]dec-9-yl]ethyl}-3-fluorophenyl)ethanamide]", "pEC50": 5.48}, {"smiles": "CS(=O)(=O)N1CCC([C@H](c2ccc(F)cc2)[C@H](N)C(=O)Nc2cccc(F)c2CC[C@H]2CN[C@@H]3CCCS(=O)(=O)N2C3)CC1", "note": "[Example 186, (βR)-N-(2-{2-[(6R,9S)-2,2-dioxido-2-thia-1,7-diazabicyclo[4.3.1]dec-9-yl]ethyl}-3-fluorophenyl)-4-fluoro-β-[1-(methylsulfonyl)piperidin-4-yl]-L-phenylalaninamide]", "pEC50": 7.48}]}]}
